In general, IC50 refers to the concentration at which inhibition is half-maximal.

The experiment deals with TRKA (Homo sapiens (Human), UniProt P04629). The experiment can be described thus: Isolated TRK enzyme assay (HTRF KinEASE-TK), TRKA. The class given is biochemical. Particulars: read-out: Trka enzyme (IC50). (In general: TR-FRET usually uses a lanthanide donor and a delayed reading to cut background.)

Structures are written as SMILES.

Sequence of TRKA (P04629 441-796): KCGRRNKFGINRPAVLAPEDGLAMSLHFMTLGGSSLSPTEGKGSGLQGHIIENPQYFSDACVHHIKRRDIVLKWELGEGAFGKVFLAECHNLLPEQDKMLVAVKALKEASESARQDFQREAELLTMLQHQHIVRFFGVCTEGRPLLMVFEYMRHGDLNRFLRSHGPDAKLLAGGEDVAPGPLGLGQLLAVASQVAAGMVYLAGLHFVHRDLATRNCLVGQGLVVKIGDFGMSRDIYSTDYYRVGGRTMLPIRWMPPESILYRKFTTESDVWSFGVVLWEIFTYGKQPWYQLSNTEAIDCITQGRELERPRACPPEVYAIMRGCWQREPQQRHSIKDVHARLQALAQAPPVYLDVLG

On to `CC(C)n1cc(C(=O)c2cncc(NC(=O)Cc3cn(Cc4ccccc4)nn3)c2)c2cncnc21` [Example 146, 2-(1-benzyl-1H-1,2,3-triazol-4-yl)-N-{5-[(7-isopropyl-7H-pyrrolo[2,3-d]pyrimidin-5-yl)carbonyl]pyridin-3-yl}acetamide], for which the IC50 was 573 nM.
With `CC(C)n1cc(C(=O)c2cncc(NC(=O)Cc3nn(C)c4cc(Cl)ccc34)c2)c2cncnc21` [Example 147, 2-(6-chloro-1-methyl-1H-indazol-3-yl)-N-{5-[(7-isopropyl-7H-pyrrolo[2,3-d]pyrimidin-5-yl)carbonyl]pyridin-3-yl}acetamide] the figure was 76.4 nM; with `CC(C)n1cc(C(=O)c2cncc(NC(=O)Cc3c[nH]c4c(Cl)cccc34)c2)c2cncnc21` [Example 148, 2-(7-chloro-1H-indol-3-yl)-N-{5-[(7-isopropyl-7H-pyrrolo[2,3-d]pyrimidin-5-yl)carbonyl]pyridin-3-yl}acetamide], 93.4 nM; with `Cc1c(-c2ccccc2)cnn1CC(=O)Nc1cncc(C(=O)c2cn(C(C)C)c3ncncc23)c1` [Example 149, N-{5-[(7-isopropyl-7H-pyrrolo[2,3-d]pyrimidin-5-yl)carbonyl]pyridin-3-yl}-2-(5-methyl-4-phenyl-1H-pyrazol-1-yl)acetamide], 3570 nM.
With `CC(C)n1cc(C(=O)c2cncc(NC(=O)Cc3cncc(Br)c3)c2)c2cncnc21` [Example 150, 2-(5-bromopyridin-3-yl)-N-{5-[(7-isopropyl-7H-pyrrolo[2,3-d]pyrimidin-5-yl)carbonyl]pyridin-3-yl}acetamide] the figure was 51 nM.
Consider `CC(C)n1cc(C(=O)c2cncc(NC(=O)Cc3ccccn3)c2)c2cncnc21` [Example 151, N-{5-[(7-isopropyl-7H-pyrrolo[2,3-d]pyrimidin-5-yl)carbonyl]pyridin-3-yl}-2-pyridin-2-ylacetamide], for which the IC50 came to 232 nM.
The value for `COc1ccc(CC(=O)Nc2cncc(C(=O)c3cn(C(C)C)c4ncncc34)c2)cn1` [Example 152, N-{5-[(7-isopropyl-7H-pyrrolo[2,3-d]pyrimidin-5-yl)carbonyl]pyridin-3-yl}-2-(6-methoxypyridin-3-yl)acetamide] was 82.5 nM; that for `Cc1ccc2[nH]c(C)c(CC(=O)Nc3cncc(C(=O)c4cn(C(C)C)c5ncncc45)c3)c2c1` [Example 153, 2-(2,5-dimethyl-1H-indol-3-yl)-N-{5-[(7-isopropyl-7H-pyrrolo[2,3-d]pyrimidin-5-yl)carbonyl]pyridin-3-yl}acetamide] was 71.5 nM.
With `Cc1ccc(CC(=O)Nc2cncc(C(=O)c3cn(C(C)C)c4ncncc34)c2)cn1` [Example 154, N-{5-[(7-isopropyl-7H-pyrrolo[2,3-d]pyrimidin-5-yl)carbonyl]pyridin-3-yl}-2-(6-methylpyridin-3-yl)acetamide] the figure was 94.1 nM; with `Cc1ccc2ccc(CC(=O)Nc3cncc(C(=O)c4cn(C(C)C)c5ncncc45)c3)cc2n1` [Example 155, N-{5-[(7-isopropyl-7H-pyrrolo[2,3-d]pyrimidin-5-yl)carbonyl]pyridin-3-yl}-2-(2-methylquinolin-7-yl)acetamide], 49.1 nM; with `COc1ccc2[nH]c(C)c(CC(=O)Nc3cncc(C(=O)c4cn(C(C)C)c5ncncc45)c3)c2c1` [Example 156, N-{5-[(7-isopropyl-7H-pyrrolo[2,3-d]pyrimidin-5-yl)carbonyl]pyridin-3-yl}-2-(5-methoxy-2-methyl-1H-indol-3-yl)acetamide], 133 nM.
Turning to `CC(C)n1cc(C(=O)c2cncc(NC(=O)Cc3ccc4nnnn4n3)c2)c2cncnc21` [Example 157, N-{5-[(7-isopropyl-7H-pyrrolo[2,3-d]pyrimidin-5-yl)carbonyl]pyridin-3-yl}-2-tetrazolo[1,5-b]pyridazin-6-ylacetamide], the IC50 is 174 nM.
With `CC(C)n1cc(C(=O)c2cncc(NC(=O)Cc3c[nH]c4ccc(O)cc34)c2)c2cncnc21` [Example 158, 2-(5-hydroxy-1H-indol-3-yl)-N-{5-[(7-isopropyl-7H-pyrrolo[2,3-d]pyrimidin-5-yl)carbonyl]pyridin-3-yl}acetamide] the figure was 230 nM; with `CC(C)n1cc(C(=O)c2cncc(NC(=O)Cc3c[nH]c4nccnc34)c2)c2cncnc21` [Example 159, N-{5-[(7-isopropyl-7H-pyrrolo[2,3-d]pyrimidin-5-yl)carbonyl]pyridin-3-yl}-2-(5H-pyrrolo[2,3-b]pyrazin-7-yl)acetamide], 234 nM.
With `Cc1cc2ncn(CC(=O)Nc3cncc(C(=O)c4cn(C(C)C)c5ncncc45)c3)c2cc1C` [Example 160, 2-(5,6-dimethyl-1H-benzimidazol-1-yl)-N-{5-[(7-isopropyl-7H-pyrrolo[2,3-d]pyrimidin-5-yl)carbonyl]pyridin-3-yl}acetamide] the figure was 1080 nM; with `CC(C)n1cc(C(=O)c2cncc(NC(=O)Cn3cc(-c4ccccn4)nn3)c2)c2cncnc21` [Example 161, N-{5-[(7-isopropyl-7H-pyrrolo[2,3-d]pyrimidin-5-yl)carbonyl]pyridin-3-yl}-2-(4-pyridin-2-yl-1H-1,2,3-triazol-1-yl)acetamide], 6270 nM.
With `Cc1cn(CC(=O)Nc2cncc(C(=O)c3cn(C(C)C)c4ncncc34)c2)nn1` [Example 162, N-{5-[(7-isopropyl-7H-pyrrolo[2,3-d]pyrimidin-5-yl)carbonyl]pyridin-3-yl}-2-(4-methyl-1H-1,2,3-triazol-1-yl)acetamide], the IC50 turned out to be 324 nM.
As to `Cc1[nH]nc(-c2ccccc2)c1CC(=O)Nc1cncc(C(=O)c2cn(C(C)C)c3ncncc23)c1` [Example 163, N-{5-[(7-isopropyl-7H-pyrrolo[2,3-d]pyrimidin-5-yl)carbonyl]pyridin-3-yl}-2-(5-methyl-3-phenyl-1H-pyrazol-4-yl)acetamide], the IC50 is 1840 nM.
With `CSc1ncc(CC(=O)Nc2cncc(C(=O)c3cn(C(C)C)c4ncncc34)c2)cn1` [Example 164, N-{5-[(7-isopropyl-7H-pyrrolo[2,3-d]pyrimidin-5-yl)carbonyl]pyridin-3-yl}-2-[2-(methylthio)pyrimidin-5-yl]acetamide] the figure was 133 nM; with `CC(C)n1cc(C(=O)c2cncc(NC(=O)Cc3ncccn3)c2)c2cncnc21` [Example 165, N-{5-[(7-isopropyl-7H-pyrrolo[2,3-d]pyrimidin-5-yl)carbonyl]pyridin-3-yl}-2-pyrimidin-2-ylacetamide], 3400 nM; with `Cn1cc(C(=O)c2cncc(NC(=O)Cc3cc(F)ccc3C(F)(F)F)c2)c2cncnc21` [Example 167, 2-[5-Fluoro-2-(trifluoromethyl)phenyl]-N-{5-[(7-methyl-7H-pyrrolo[2,3-d]pyrimidin-5-yl)carbonyl]pyridin-3-yl}acetamide], 3470 nM.
The value for `Cc1cccc(CC(=O)Nc2cncc(C(=O)c3cn(C)c4ncncc34)c2)c1` [Example 168, 2-(3-methylphenyl)-N-{5-[(7-methyl-7H-pyrrolo[2,3-d]pyrimidin-5-yl)carbonyl]pyridin-3-yl}acetamide] was 702 nM.
The value for `Cn1cc(C(=O)c2cncc(NC(=O)Cc3ccccc3C(F)(F)F)c2)c2cncnc21` [Example 169, N-{5-[(7-methyl-7H-pyrrolo[2,3-d]pyrimidin-5-yl)carbonyl]pyridin-3-yl}-2-[2-(trifluoromethyl)phenyl]acetamide] was 3100 nM; that for `Cn1cc(C(=O)c2cncc(NC(=O)Cc3cc(F)cc(F)c3)c2)c2cncnc21` [Example 170, 2-(3,5-difluorophenyl)-N-{5-[(7-methyl-7H-pyrrolo[2,3-d]pyrimidin-5-yl)carbonyl]pyridin-3-yl}acetamide] was 3100 nM; that for `Cn1cc(C(=O)c2cncc(NC(=O)Cc3c(F)cc(F)cc3F)c2)c2cncnc21` [Example 171, N-{5-[(7-methyl-7H-pyrrolo[2,3-d]pyrimidin-5-yl)carbonyl]pyridin-3-yl}-2-(2,4,6-trifluorophenyl)acetamide] was 1280 nM.
Regarding `Cn1cc(C(=O)c2cncc(NC(=O)Cc3c(F)ccc(F)c3F)c2)c2cncnc21` [Example 172, N-{5-[(7-methyl-7H-pyrrolo[2,3-d]pyrimidin-5-yl)carbonyl]pyridin-3-yl}-2-(2,3,6-trifluorophenyl)acetamide], the IC50 is 3840 nM.
With `Cn1cc(C(=O)c2cncc(NC(=O)Cc3ccc(S(C)(=O)=O)cc3)c2)c2cncnc21` [Example 173, N-{5-[(7-methyl-7H-pyrrolo[2,3-d]pyrimidin-5-yl)carbonyl]pyridin-3-yl}-2-[4-(methylsulfonyl)phenyl]acetamide] the figure was 9810 nM; with `Cn1cc(C(=O)c2cncc(NC(=O)Cc3ccc(C(F)(F)F)c(F)c3)c2)c2cncnc21` [Example 174, 2-[3-fluoro-4-(trifluoromethyl)phenyl]-N-{5-[(7-methyl-7H-pyrrolo[2,3-d]pyrimidin-5-yl)carbonyl]pyridin-3-yl}acetamide], 210 nM; with `COc1cccc(CC(=O)Nc2cncc(C(=O)c3cn(C)c4ncncc34)c2)c1` [Example 175, 2-(3-methoxyphenyl)-N-{5-[(7-methyl-7H-pyrrolo[2,3-d]pyrimidin-5-yl)carbonyl]pyridin-3-yl}acetamide], 2590 nM.
Regarding `Cn1cc(C(=O)c2cncc(NC(=O)Cc3cccc(OC(F)(F)F)c3)c2)c2cncnc21` [Example 176, N-{5-[(7-methyl-7H-pyrrolo[2,3-d]pyrimidin-5-yl)carbonyl]pyridin-3-yl}-2-[3-(trifluoromethoxy)phenyl]acetamide], the IC50 is 165 nM.
The value for `Cn1cc(C(=O)c2cncc(NC(=O)Cc3cc(F)cc(F)c3F)c2)c2cncnc21` [Example 177, N-{5-[(7-methyl-7H-pyrrolo[2,3-d]pyrimidin-5-yl)carbonyl]pyridin-3-yl}-2-(2,3,5-trifluorophenyl)acetamide] was 3100 nM.
With `Cc1ccc2ccc(CC(=O)Nc3cncc(C(=O)c4cn(C)c5ncncc45)c3)cc2n1` [Example 178, N-{5-[(7-methyl-7H-pyrrolo[2,3-d]pyrimidin-5-yl)carbonyl]pyridin-3-yl}-2-(2-methylquinolin-7-yl)acetamide] the figure was 3100 nM; with `Cn1cc(C(=O)c2cncc(NC(=O)Cc3ccccc3)c2)c2cncnc21` [Example 179, N-{5-[(7-methyl-7H-pyrrolo[2,3-d]pyrimidin-5-yl)carbonyl]pyridin-3-yl}-2-phenylacetamide], 3080 nM.

The record behind these values is US8846698B2, “Pyrrolo[2,3-d]pyrimidine tropomysin-related kinase inhibitors” (Pfizer Limited, priority 2011, dated 2014).
